Some test systems named below: SNB-75; 786-0; U-251; A498; SF-539; SNB-19; RXF 393; SK-OV-3; SF-295; CAKI-1; TK-10; MOLT-4; CCRF-CEM; UO-31; HT-29; HCT-15; HCC 2998; RPMI-8226.
Holding throughout (test): DTP human tumour cell line panel, 48 h

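1) Cells in 96-well plates. 2) Compound, 48 h, 5 concentrations. 3) Linear interpolation between surrounding doses. 4) Unreached endpoint = highest concentration. Here, GI50 denotes the concentration required for 50% inhibition of growth.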 Active and inactive are the calls of the source. Rule as the data show it: active = GI50 up to about 1.1 µM and inactive = higher.

Results on 13 compounds are retold here after ChEMBL document CHEMBL1201862, “PubChem BioAssay data set” (2004).

One may read the GI50 as the concentration that inhibits growth by half. For the compound `CC(=O)CNC(=O)OC(C)(C)C`, the GI50 with SNB-75, in the experiment with 786-0, with U-251, in the experiment with A498, with SF-539 and in the experiment with SNB-19 was > 100 µM (inactive) in each case. Also, the GI50 in the experiment on RXF 393, with SK-OV-3, with SF-295, in the experiment on CAKI-1, in the experiment with TK-10 and in the experiment on MOLT-4 was > 100 µM (inactive) in each case. Also, the GI50 in the experiment with CCRF-CEM, in the experiment on UO-31 and in the experiment with HT-29 was > 100 µM (inactive) each time.

In the case of `O=C(/C=C1/Nc2ccc([N+](=O)[O-])cc2NC1O)c1cccc([N+](=O)[O-])c1` (stereo unspecified), the GI50 in the experiment with SNB-75 is 46.3 µM (inactive); with 786-0, 14 µM (inactive); in the experiment with U-251 it was 21 µM (inactive); in the experiment on A498, > 100 µM (inactive); in the experiment on SF-539, 20.7 µM (inactive); in the experiment on SNB-19, > 100 µM (inactive). Also, the GI50 in the experiment on RXF 393 is 23.6 µM (inactive); with SK-OV-3, 20.3 µM (inactive); with SF-295, 13.6 µM (inactive); with HCT-15, 23.5 µM; with CAKI-1, 56.9 µM (inactive); in the experiment on TK-10 it was 35 µM (inactive). Moreover, the GI50 is 64.4 µM (inactive) with MOLT-4; 53.5 µM (inactive) in the experiment on HCC 2998; 14.5 µM (inactive) in the experiment with CCRF-CEM; 35.9 µM (inactive) in the experiment on UO-31; 56.2 µM (inactive) in the experiment on HT-29.

Consider `c1ccc(SC23C4C5C6C4C2C6C53)nc1` (stereo unspecified), for which the GI50 was > 77.4 µM (inactive) with SNB-75; > 100 µM (inactive) with 786-0; > 100 µM (inactive) in the experiment with U-251; > 63.7 µM (inactive) in the experiment on A498; > 75 µM (inactive) with SF-539; > 100 µM (inactive) in the experiment on SNB-19. Moreover, the GI50 with SK-OV-3 is > 100 µM (inactive); with SF-295, > 100 µM (inactive); in the experiment with HCT-15, greater than 100 µM; in the experiment with CAKI-1, > 100 µM (inactive); with TK-10 it was > 67.9 µM (inactive); with MOLT-4, > 100 µM (inactive). The GI50 was > 100 µM (inactive) with HCC 2998; > 39.5 µM (inactive) with RPMI-8226; > 100 µM (inactive) with CCRF-CEM; 35.6 µM (inactive) in the experiment on UO-31; > 100 µM (inactive) in the experiment on HT-29.

Regarding `O=C(CC(=O)c1cccc2ccccc12)C(=O)NC1C2CC3CC(C2)CC1C3` (stereo unspecified), the GI50 with 786-0, in the experiment with U-251, in the experiment with A498, in the experiment with SF-539, in the experiment with SNB-19 and in the experiment on SK-OV-3 was > 100 µM (inactive) throughout. Also, the GI50 in the experiment on SF-295 was > 100 µM (inactive); in the experiment on HCT-15 it was greater than 100 µM; in the experiment on CAKI-1, > 100 µM (inactive); in the experiment with TK-10, > 100 µM (inactive); with MOLT-4, > 100 µM (inactive); in the experiment on HCC 2998 it was > 100 µM (inactive). Also, the GI50 in the experiment with RPMI-8226, in the experiment with CCRF-CEM, in the experiment with UO-31 and in the experiment on HT-29 was > 100 µM (inactive) throughout.

Regarding `CN(C)C(=S)Nc1nnc(Nc2ccccc2)s1`, the GI50 in the experiment on SNB-75, in the experiment with 786-0, with U-251, in the experiment on A498, with SF-539 and in the experiment on SNB-19 was > 100 µM (inactive) each time. The GI50 is > 100 µM (inactive) in the experiment with RXF 393; > 100 µM (inactive) in the experiment on SK-OV-3; greater than 100 µM in the experiment with HCT-15; > 100 µM (inactive) in the experiment on CAKI-1; > 100 µM (inactive) in the experiment on MOLT-4; > 100 µM (inactive) in the experiment with HCC 2998. The GI50 with CCRF-CEM, in the experiment on UO-31 and in the experiment on HT-29 was > 100 µM (inactive) in each case.

For `COC(=O)/C=C/c1cc(OC)c(OC)c(OC)c1`, the GI50 in the experiment on SNB-75 was 41.6 µM (inactive); in the experiment on 786-0 it was > 100 µM (inactive); in the experiment on SF-539, > 100 µM (inactive); in the experiment with SNB-19, > 100 µM (inactive); in the experiment with RXF 393, > 100 µM (inactive); in the experiment with SK-OV-3 it was > 100 µM (inactive). Also, the GI50 in the experiment with SF-295 is > 100 µM (inactive); with HCT-15, greater than 100 µM; with CAKI-1, > 100 µM (inactive); in the experiment on TK-10, > 100 µM (inactive); in the experiment with MOLT-4 it was > 100 µM (inactive); in the experiment with HCC 2998, > 100 µM (inactive). Also, the GI50 is > 100 µM (inactive) in the experiment with CCRF-CEM, 69.3 µM (inactive) in the experiment with UO-31 and > 100 µM (inactive) in the experiment on HT-29.

In the case of `Cc1ccc(C2(O)CC(c3ccc([N+](=O)[O-])o3)=NN2C(=O)COc2ccc(Cl)cc2)cc1` (stereo unspecified), the GI50 in the experiment with SNB-75 was 13.6 µM (inactive); with 786-0 it was 4.45 µM (inactive); in the experiment with U-251 it was 2.28 µM (inactive); in the experiment on A498, 4.98 µM (inactive); in the experiment on SF-539, 10.2 µM (inactive); with SNB-19, 6.62 µM (inactive). The GI50 with SK-OV-3 was 15.3 µM (inactive); in the experiment on SF-295 it was 10.6 µM (inactive); in the experiment on HCT-15 it was 3.1 µM; in the experiment on CAKI-1 it was 12.6 µM (inactive); in the experiment with TK-10 it was 15 µM (inactive); in the experiment on MOLT-4, 3.26 µM (inactive). Further, the GI50 was 6 µM (inactive) with HCC 2998, 2.24 µM (inactive) in the experiment with RPMI-8226, 5.5 µM (inactive) with UO-31 and 5.47 µM (inactive) with HT-29.

For `COc1ccc(/C(=N\NC(=N)N)C(c2ccc(OC)cc2)C2OC(=O)c3ccccc32)cc1` (stereo unspecified), the GI50 is 67.5 µM (inactive) in the experiment with SNB-75; > 100 µM (inactive) in the experiment with 786-0; > 100 µM (inactive) in the experiment on U-251; > 100 µM (inactive) with SF-539; > 100 µM (inactive) with SNB-19; > 100 µM (inactive) in the experiment on RXF 393. The GI50 in the experiment with SK-OV-3 is > 100 µM (inactive); in the experiment with SF-295, > 100 µM (inactive); in the experiment on HCT-15 it was greater than 100 µM; in the experiment with CAKI-1, > 100 µM (inactive); in the experiment with MOLT-4, > 100 µM (inactive); in the experiment on HCC 2998, > 100 µM (inactive). The GI50 with RPMI-8226, with CCRF-CEM, in the experiment on UO-31 and in the experiment with HT-29 was > 100 µM (inactive) in each case.

For `CC1(C)C(=O)N(c2ccccc2)C(=O)N1c1nc2ccccc2[nH]1`, the GI50 in the experiment with SNB-75, in the experiment on 786-0, in the experiment on A498, with SNB-19, in the experiment on RXF 393 and in the experiment with SK-OV-3 was > 100 µM (inactive) in each case. For the same compound, the GI50 is > 100 µM (inactive) in the experiment with SF-295; 94.2 µM with HCT-15; > 100 µM (inactive) in the experiment on CAKI-1; > 100 µM (inactive) with TK-10; 40.9 µM (inactive) in the experiment with MOLT-4; > 100 µM (inactive) in the experiment on HCC 2998. Besides, the GI50 was 33.7 µM (inactive) with RPMI-8226, 21.4 µM (inactive) in the experiment with CCRF-CEM, > 100 µM (inactive) in the experiment on UO-31 and 65.6 µM (inactive) in the experiment on HT-29.

As to `C1=CC(N(c2ccccc2)C2C=CCCC2)CCC1` (stereo unspecified), the GI50 was > 100 µM (inactive) in the experiment with 786-0; > 100 µM (inactive) in the experiment with U-251; > 100 µM (inactive) in the experiment on A498; > 100 µM (inactive) in the experiment with SF-539; 48.6 µM (inactive) in the experiment with RXF 393; > 100 µM (inactive) with SK-OV-3. For the same compound, the GI50 with SF-295 was 85.7 µM (inactive); in the experiment on HCT-15 it was greater than 100 µM; in the experiment with CAKI-1, > 100 µM (inactive); with TK-10, > 100 µM (inactive); in the experiment on MOLT-4, > 10 µM (inactive); in the experiment with RPMI-8226 it was 32.4 µM (inactive). The GI50 with CCRF-CEM and with HT-29 was > 100 µM (inactive) in each case.

With `Clc1cccc(-c2nnc(-c3nn(-c4ccccc4)c4nc5ccccc5nc34)o2)c1`, the GI50 is 36.6 µM (inactive) in the experiment with SNB-75; > 100 µM (inactive) in the experiment with 786-0; > 100 µM (inactive) in the experiment with U-251; > 100 µM (inactive) in the experiment on SF-539; > 100 µM (inactive) in the experiment on SNB-19; 56.2 µM (inactive) in the experiment on RXF 393. Moreover, the GI50 with SK-OV-3 is > 100 µM (inactive); with SF-295 it was > 100 µM (inactive); in the experiment with HCT-15, greater than 100 µM; in the experiment on CAKI-1, > 100 µM (inactive); in the experiment on TK-10 it was > 100 µM (inactive); with MOLT-4, > 100 µM (inactive). For the same compound, the GI50 in the experiment on HCC 2998, in the experiment on RPMI-8226, in the experiment on CCRF-CEM, with UO-31 and in the experiment with HT-29 was > 100 µM (inactive) throughout.

As for `O=C1Nc2ccccc2C12CCNC2Cc1ccccc1` (stereo unspecified), the GI50 is > 100 µM (inactive) in the experiment on SNB-75; > 100 µM (inactive) in the experiment with 786-0; > 100 µM (inactive) in the experiment on U-251; > 100 µM (inactive) in the experiment with A498; > 100 µM (inactive) in the experiment with SF-539; 56.6 µM (inactive) in the experiment with SNB-19. Moreover, the GI50 in the experiment on SK-OV-3 is > 100 µM (inactive); in the experiment on SF-295, > 100 µM (inactive); in the experiment on HCT-15, greater than 100 µM; with CAKI-1 it was > 100 µM (inactive); in the experiment on TK-10, > 100 µM (inactive); in the experiment on MOLT-4, > 100 µM (inactive). In addition, the GI50 in the experiment on HCC 2998, with RPMI-8226, in the experiment on CCRF-CEM and in the experiment with HT-29 was > 100 µM (inactive) in each case.

With `COc1ccc(C2S/C(=C\c3ccc([N+](=O)[O-])cc3)C(=O)N2NC(=O)Cc2ccccc2)cc1` (stereo unspecified), the GI50 was 53.8 µM (inactive) with SNB-75; > 100 µM (inactive) in the experiment with 786-0; 79.3 µM (inactive) in the experiment with U-251; > 100 µM (inactive) with A498; > 100 µM (inactive) in the experiment with SF-539; 25.6 µM (inactive) with RXF 393. Further, the GI50 with SK-OV-3 was > 100 µM (inactive); in the experiment on SF-295, > 100 µM (inactive); in the experiment with HCT-15, 79.8 µM; in the experiment on CAKI-1, > 100 µM (inactive); in the experiment on TK-10 it was > 100 µM (inactive); with MOLT-4, 87.3 µM (inactive). The GI50 was > 100 µM (inactive) in the experiment with RPMI-8226, 82.8 µM (inactive) in the experiment with CCRF-CEM, > 100 µM (inactive) in the experiment on UO-31 and > 100 µM (inactive) in the experiment on HT-29.
